# Test results taken from patent publication US9615577B2, “Herbicidally active cyclic dione compounds, or derivatives therefor, substituted by a phenyl which has an alkynyl-containing substituent” (Syngenta Limited, priority 2012, dated 2017).
# Columns and labels:
# Assay type in all cases: in vivo
# [1] = test system: Alopecurus myosuroides (ALOMY); assay: Test 1A glasshouse assay for herbicidal activity, pre-emergence; conditions: 312 h, 250 g/ha, evaluated after 13 days, read-out: percentage phytotoxicity ALOMY
# In short: (§1)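 Damage is rated by eye as percent phytotoxicity on a 0–100 scale, 13 days after treatment. Compound is sprayed in acetone/water (50:50) with 0.5% Tween 20 onto pots one day (pre-emergence) or eight days (post-emergence) after sowing, with plants kept at 24/16 °C and 14 h light.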
# [2] = test system: Amaranthus retroflexus (AMARE); assay: as above; conditions: 312 h, 250 g/ha, evaluated after 13 days, read-out: percentage phytotoxicity AMARE
# In short: as §1
# [3] = test system: Echinochloa crus-galli (ECHCG); assay: as above; conditions: 312 h, 250 g/ha, evaluated after 13 days, read-out: percentage phytotoxicity ECHCG
# In short: as §1
# [4] = test system: Setaria faberi (SETFA); assay: as above; conditions: 312 h, 250 g/ha, evaluated after 13 days, read-out: percentage phytotoxicity SETFA
# In short: as §1
# [5] = test system: Setaria faberi (SETFA); assay: Test 1A glasshouse assay for herbicidal activity, post-emergence; conditions: 312 h, evaluated after 13 days, read-out: percentage phytotoxicity SETFA
# In short: as §1
# [6] = test system: Glycine max (GLXMA, soybean); assay: Test 1B glasshouse assay for herbicidal activity, pre-emergence; conditions: 480 h, 250 g/ha, 20 DAA, read-out: percentage phytotoxicity GLXMA
# Procedure: (§2) Seeds of a variety of monocotyledonous and dicotyledonous test plants are sown in standard soil in pots. The plants are cultivated for one day (for pre-emergence) or for about 12 days (range=10-13 days) (for post-emergence) under controlled conditions in a glasshouse (warm climate species at 24/18° C., cool climate species at 20/16° C., both at day/night; 16 hours light; 65% humidity).
# (§3) An “instant formulation”, known as the “IF50”, containing 50 g/liter (i.e. 5% w/v) of the “technical” (i.e. unformulated) active ingredient is prepared by dissolving the active ingredient in a mixture of organic solvents and emulsifier, details of which are provided in the Table below. This IF50 is then mixed with a small, variable amount of acetone to aid dissolution, before addition of a 0.2% v/v aqueous solution of the adjuvant X-77 (which is a mixture of alkyl aryl polyoxyethylene glycols and free fatty acids in isopropanol, CAS Registry number 11097-66-8), as the aqueous diluent, to form an aqueous spray solution which contains a predetermined concentration of the active ingredient (which varies depending on the application rate of the active ingredient to the plants) and 0.2% v/v of the adjuvant X-77. This aqueous spray solution is then sprayed onto the plants, after one day's cultivation (for pre-emergence) or after about 12 days' cultivation (for post-emergence).
# (§4) The test plants are then grown on, in a glasshouse (greenhouse) under controlled conditions (at either 24/18° C. or 20/16° C. (day/night) as mentioned above; 16 hours light; 65% humidity) and are watered twice daily. Either 15 days after application of the herbicide (15 DAA) (for post-emergence), or 20 days after application of the herbicide (20 DAA) (for pre-emergence), the test plants are evaluated visually, and an assessed percentage phytotoxicity score is given for each herbicidal application on each plant species (where 100%=total damage to plant; 0%=no damage to plant).
# (§5) Warm climate crop plants: Glycine max (GLXMA, soybean).
# [7] = test system: Alopecurus myosuroides (ALOMY); assay: as above; conditions: 480 h, 250 g/ha, 20 DAA, read-out: percentage phytotoxicity ALOMY
# Procedure: as §2, §3, §4
# (§6) Cool climate (“cool season”) grassy monocotyledonous weeds: Alopecurus myosuroides (ALOMY), Avena fatua (AVEFA), Lolium perenne (LOLPE).
# [8] = test system: Avena fatua (AVEFA); assay: as above; conditions: 480 h, 250 g/ha, 20 DAA, read-out: percentage phytotoxicity AVEFA
# Procedure: as §2, §3, §4, §6
# [9] = test system: Lolium perenne (LOLPE); assay: as above; conditions: 480 h, 250 g/ha, 20 DAA, read-out: percentage phytotoxicity LOLPE
# Procedure: as §2, §3, §4, §6
# [10] = test system: Glycine max (GLXMA, soybean); assay: Test 1B glasshouse assay for herbicidal activity, post-emergence; conditions: 360 h; for plant injury at 30 g/ha: 30 g/ha application rate
# Procedure: as §2, §3, §4, §5
# [11] = test system: Alopecurus myosuroides (ALOMY); assay: as above; conditions: 360 h; for pest or weed control at 30 g/ha: 30 g/ha application rate
# Procedure: as §2, §3, §4, §6
# [12] = test system: Avena fatua (AVEFA); assay: as above; conditions: 360 h; for pest or weed control at 30 g/ha: 30 g/ha application rate
# Procedure: as §2, §3, §4, §6
# [13] = test system: Lolium perenne (LOLPE); assay: as above; conditions: 360 h; for pest or weed control at 30 g/ha: 30 g/ha application rate
# Procedure: as §2, §3, §4, §6
# [14] = test system: Digitaria sanguinalis (DIGSA); assay: as above; conditions: 360 h; for pest or weed control at 30 g/ha: 30 g/ha application rate
# Procedure: as §2, §3, §4
# (§7) Warm climate (“warm season”) grassy monocotyledonous weeds: Setaria faberi (SETFA), SORVU (Sorghum bicolor (L.) Moench ssp. Bicolor, or Sorghum vulgare Pers.), Digitaria sanguinalis (DIGSA), Echinochloa crus-galli (ECHCG), and Brachiaria plantaginea (BRAPL).
# [15] = test system: SORVU (Sorghum bicolor (L.) Moench ssp. Bicolor, or Sorghum vulgare Pers.); assay: as above; conditions: 360 h; for pest or weed control at 30 g/ha: 30 g/ha application rate
# Procedure: as §2, §3, §4, §7
# [16] = test system: Setaria faberi (SETFA); assay: as above; conditions: 360 h; for pest or weed control at 30 g/ha: 30 g/ha application rate
# Procedure: as §2, §3, §4, §7
# [17] = test system: Echinochloa crus-galli (ECHCG); assay: as above; conditions: Echinochloa crus-galli; for pest or weed control at 30 g/ha: 30 g/ha application rate
# Procedure: as §2, §3, §4, §7
# Note: The herbicidal activity data (e.g. post-emergence) shown above in Biological Example 1B for Comparator compounds X-9 and X-10 is thought likely to have been measured some years ago, probably using a variant of the above-described test method. Also, for the post-emergence activity of X-9 and X-10 it is not currently known exactly how many days after application of the herbicide the phytotoxicity on the plants was measured.
Structure (SMILES),pest or weed control at 250 g/ha [1],pest or weed control at 250 g/ha [2],pest or weed control at 250 g/ha [3],pest or weed control at 250 g/ha [4],pest or weed control at 250 g/ha [5],plant injury at 30 g/ha [10],pest or weed control at 30 g/ha [11],pest or weed control at 30 g/ha [12],pest or weed control at 30 g/ha [13],pest or weed control at 30 g/ha [14],pest or weed control at 30 g/ha [15],pest or weed control at 30 g/ha [16],pest or weed control at 30 g/ha [17],further results
"CC#Cc1cc(Cl)c(C2C(=O)CC3(CCOCC3)CC2=O)c(OC)c1 [Compound A-20, 9-(2-Chloro-6-methoxy-4-prop-1-ynyl-phenyl)-3-oxa-spiro[5.5]undecane-8,10-dione]",100%,90%,100%,100%,100%,–,–,–,–,–,–,–,–,pest or weed control at 8 g/ha ([5]; 8 g/ha): 90%; pest or weed control at 30 g/ha ([5]; 30 g/ha): 100%
CC#Cc1cc(C)c(C2=C(OC(=O)OC)CC(c3ccccn3)CC2=O)c(C)c1 (stereo not drawn) [Compound A-14],100%,70%,100%,100%,100%,40%,70%,20%,70%,80%,80%,80%,80%,plant injury at 250 g/ha [6]: 20%; pest or weed control at 250 g/ha [7]: 80%; pest or weed control at 250 g/ha [8]: 70%; pest or weed control at 250 g/ha [9]: 100%; plant injury at 125 g/ha ([10]; 125 g/ha application rate): 70%; pest or weed control at 125 g/ha ([11]; 125 g/ha application rate): 80%; pest or weed control at 125 g/ha ([12]; 125 g/ha application rate): 60%; pest or weed control at 125 g/ha ([13]; 125 g/ha application rate): 80%; pest or weed control at 125 g/ha ([14]; 125 g/ha application rate): 100%; pest or weed control at 125 g/ha ([15]; 125 g/ha application rate): 100%; pest or weed control at 125 g/ha ([16]; 125 g/ha application rate): 90%; pest or weed control at 125 g/ha ([17]; 125 g/ha application rate): 100%
Cc1cc(C#CCl)cc(C)c1C1C(=O)CC(CC2CCOCC2)CC1=O (stereo not drawn) [Compound A-8],90%,90%,100%,90%,90%,50%,80%,70%,40%,100%,90%,90%,100%,–
